Test results reported in PMC6921030, “Biochemical Characterization of a Novel α/β-Hydrolase/FSH from the White Shrimp Litopenaeus vannamei” (Biomolecules, 2019).

Target: T1, LvFSH (LvFHS) (Penaeus vannamei, UniProt A0A3R7MXL5)
T1 construct: gene C7M84_009540; synthetic codon-optimised gene of LvFSH coding region, N-terminal 10-His tag (cutting not mentioned), pJexpress414, E. coli BL21DE3-SI; about 27 kDa on SDS-PAGE, about 58 kDa by gel filtration (probable dimer); catalytic triad Ser111/Asp169/His196 proposed; C-terminal motif KMRELC 214-219
T1 sequence (A0A3R7MXL5 entry or part of it): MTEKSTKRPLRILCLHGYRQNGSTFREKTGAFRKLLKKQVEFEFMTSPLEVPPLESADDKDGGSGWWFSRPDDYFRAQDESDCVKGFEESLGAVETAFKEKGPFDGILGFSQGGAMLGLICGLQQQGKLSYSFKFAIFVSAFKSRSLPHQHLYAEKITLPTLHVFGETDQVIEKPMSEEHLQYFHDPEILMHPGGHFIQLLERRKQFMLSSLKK
Assay: spectrophotometric p-nitrophenol release at […] nm, non-linear Michaelis-Menten fit
Type: biochemical
Settings: 50 mM Tris-HCl pH 8.0, 37 °C, 0.2% (v/v) Triton X-100, 50 mM NaCl; substrate 0.05-2 mM in ethanol

Km: 1000 ± 40 µM
SMILES: CC(=O)Oc1ccc([N+](=O)[O-])cc1 [p-nitrophenyl acetate]
